Patent US4500707A, “Nucleosides useful in the preparation of polynucleotides” (University Patents, Inc., priority 1982, dated 1985)
“And” between values parts separate entries of the source, which are not always exact repeats. Equal entries are not always repeated.

How the values were obtained:
Type in all cases: physicochemical
[1] = Rate of detritylation and degradation of 5'-trityldeoxynucleosides using ZnBr2 at room temperature (Table III); conditions: for Detritylation time: 100% detritylation; for Detritylation %: <1 min
Excerpt: (§1) The procedure merely requires contacting the reactants preferably in a reaction solvent and detritylation occurs within short reaction times. The Lewis acid is normally suspended in the reaction solvent and the solvent is usually water-free to prevent reaction with the Lewis acid to form protic acids. In present experience, nitromethane is the preferred solvent although a variety of other solvents can be used, e.g. dioxane and tetrahydrofuran and mixtures of such solvents with each other and other solvents such as acetone, methylene chloride, and the like.
The results obtained with various tritylthymidines at room temperature with zinc bromide is give in Table III.
The Rate of Detritylation and Degradation of 5'-
Trityldeoxynucleosides Using ZnBr2 at Room

[2] = Protic acid hydrolysis rates of triarylmethyl groups attached to the 5'-hydroxyl of deoxynucleosides (Table VIII); conditions: 2% toluenesulfonic acid in chloroform:methanol (7:3)
Description: The 5'-triarylmethyldeoxynucleosides were treated with protic and Lewis acids using carefully controlled conditions. The results of these studies are also recorded in Tables VII and VIII. […] The rates are more variable with protic acids.
^1 Reaction conditions were 2% toluenesulfonic acid in
chloroform:methanol (7:3). Aliquots were removed from the reaction
solution, quenched with ammonium acetate and analyzed visually after tlc
and exposure to HCl vapors. Time points were taken at 15, 30, 45, 60, 90,

[3] = Rate of detritylation of various tritylthymidines using saturated ZnBr2 in nitromethane at 0° C. (Table IV); conditions: for % Detritylation: at the time of the same line (1, 10 or 30 min); for Detritylation time: time for the % detritylation of the same line
Excerpt: as §1
and at 0° C. in Table IV.
The Rate of Detritylation of Various Tritylthymidines
Using Saturated ZnBr2 in Nitromethane at 0° C.

[4] = Rate of detritylation and depurination using various solutions (Table II); conditions: for Detritylation time: 100% detritylation
Excerpt: A particularly preferred embodiment of the present invention is the detritylation of the 5'-O trityl nucleosides, deoxynucleotides, oligonucleotides, oligodeoxynucleotides, polynucleotides and polydeoxynucleotides using a Lewis acid, particularly zinc bromide, although other Lewis acids can also be employed, e.g. titanium tetrachloride. […] The process is also specific for 5'-O-trityl and thus provides a very practical procedure to permit production of 3'-O-trityl blocked nucleosides by reaction with the 3'-O and 5'-O ditritylated compound.
as §1
The Rate of Detritylation and Depurination of 5'-
Dimethoxytrityl-N--benzoyldeoxyadenosine Using
*All depurination results summarized in this communication were obtained
by analyzing reaction mixtures using reverse phase high pressure liquid
chromatography. Estimates of detritylation times were by thin layer
**A nitromethane solution saturated with ZnBr2 is approximately 0.1

[5] = Spectral characteristics of selected triarylmethyl alcohols (Table IX); conditions: saturated ZnBr2 nitromethane solution; for Extinction Coefficient: at the λ maximum of the same line
Description: of selected triarylmethyl alcohols.
^2 All spectra were taken in a saturated ZnBr2 nitromethane
solution. All spectra were recorded on a Carey model 21, scanning from 35

Question: For `COc1ccc(C(OC[C@H]2O[C@@H](n3cc(C)c(=O)[nH]c3=O)C[C@@H]2O)(c2ccccc2)c2ccc(OC)cc2)cc1` [5'-Dimethoxytritylthymidine], which Degradation time [1] is on record?
Answer: The Degradation time was 24 h.

Question: And the Detritylation time [1]?
Answer: Its Detritylation time is under 1 min.

Question: And the Detritylation % [1]?
Answer: Its Detritylation % is 100%.

Question: What about the “Time to Complete Hydrolysis” value [2] of the same compound?
Answer: The value was 30 s.

Question: And the “% Detritylation” value [3]?
Answer: The value was 50%.

Question: What about the Detritylation time [3] of the same compound?
Answer: Its Detritylation time is 1 min.

Question: For `COc1ccc(C(OC[C@H]2O[C@@H](n3cnc4c(NC(=O)c5ccccc5)ncnc43)C[C@@H]2O)(c2ccccc2)c2ccc(OC)cc2)cc1` [5'-O-dimethoxytrityl-N-benzoyldeoxyadenosine], which “Time to Complete Hydrolysis” value [2] is on record?
Answer: The value was 30 s.

Question: What about the Depurination time ([4]; 0.5% toluenesulfonic acid/CHCl3:CH3OH (7:3), 0° C., 50% depurination) of the same compound?
Answer: The Depurination time was 8 h.

Question: What about the Detritylation time ([4]; 0.5% toluenesulfonic acid/CHCl3:CH3OH (7:3), 0° C.) of the same compound?
Answer: The Detritylation time was 10 min.

Question: And the Detritylation % ([4]; 0.5% toluenesulfonic acid/CHCl3:CH3OH (7:3), 0° C., 10 min)?
Answer: The Detritylation % was 100%.

Question: What about the Depurination % ([4]; 0.5% toluenesulfonic acid/CHCl3:CH3OH (7:3), 0° C., 8 hrs) of the same compound?
Answer: The Depurination % was 50%.

Question: And the Depurination time ([4]; 2% toluenesulfonic acid/CHCl3:CH3OH (7:3), 18° C., 50% depurination)?
Answer: The Depurination time was 0.083 h.

Question: And the Detritylation time ([4]; 2% toluenesulfonic acid/CHCl3:CH3OH (7:3), 18° C.)?
Answer: Its Detritylation time is under 1 min.

Question: What about the Depurination % ([4]; 2% toluenesulfonic acid/CHCl3:CH3OH (7:3), 18° C., 5 min) of the same compound?
Answer: The Depurination % was 50%.

Question: And the Detritylation % ([4]; 2% toluenesulfonic acid/CHCl3:CH3OH (7:3), 18° C., <1 min)?
Answer: Its Detritylation % is 100%.

Question: And the Detritylation time ([4]; satd. ZnBr2/CH3NO2, 0° C.)?
Answer: The Detritylation time was 10 min.

Question: What about the Detritylation % ([4]; satd. ZnBr2/CH3NO2, 0° C., 10 min) of the same compound?
Answer: Its Detritylation % is 100%.

Question: What about the Depurination % ([4]; satd. ZnBr2/CH3NO2, 0° C., 21 hrs) of the same compound?
Answer: The Depurination % was under 5%.

Question: And the Depurination time ([4]; satd. ZnBr2/CH3NO2, 0° C., <5% depurination)?
Answer: Its Depurination time is 21 h.

Question: And the Depurination time ([4]; satd. ZnBr2/CH3NO2, 18° C., 50% depurination)?
Answer: Its Depurination time is 10 h.

Question: And the Detritylation time ([4]; satd. ZnBr2/CH3NO2, 18° C.)?
Answer: The Detritylation time was under 1 min.

Question: What about the Depurination % ([4]; satd. ZnBr2/CH3NO2, 18° C., 10 hrs) of the same compound?
Answer: Its Depurination % is 50%.

Question: And the Detritylation % ([4]; satd. ZnBr2/CH3NO2, 18° C., <1 min)?
Answer: The Detritylation % was 100%.

Question: Which results are given for `COc1ccc(C(OC[C@H]2O[C@@H](n3ccc(NC(=O)c4ccccc4)nc3=O)C[C@@H]2O)(c2ccccc2)c2ccc(OC)cc2)cc1` [5'-O-dimethoxytrityl-N-benzoyldeoxycytidine]?
Answer: Degradation time [1]: 24 h; Detritylation time [1]: < 1 min; Detritylation % [1]: 100%; Time to Complete Hydrolysis [2]: 30 s

Question: With `COc1ccc(C(OC[C@H]2O[C@@H](n3cnc4c(=O)[nH]c(NC(=O)C(C)C)nc43)C[C@@H]2O)(c2ccccc2)c2ccc(OC)cc2)cc1` [5'-O-dimethoxytrityl-N-isobutyryldeoxyguanosine] as the compound, how does the Degradation time [1] read?
Answer: The Degradation time was 50 h.

Question: And the Detritylation time [1]?
Answer: Its Detritylation time is under 1 min.

Question: What about the Detritylation % [1] of the same compound?
Answer: Its Detritylation % is 100%.

Question: And the “Time to Complete Hydrolysis” value [2]?
Answer: Its value is 30 s.

Question: With `Cc1cn([C@H]2C[C@H](O)[C@@H](COC(c3ccccc3)(c3ccccc3)c3ccccc3)O2)c(=O)[nH]c1=O` [5'-Tritylthymidine] as the compound, how does the “% Detritylation” value [3] read?
Answer: The value was 50%.

Question: And the Detritylation time [3]?
Answer: Its Detritylation time is 10 min.

Question: Which “Time to Complete Hydrolysis” value [2] does the source give for `COc1ccccc1C(OC[C@H]1O[C@@H](n2cnc3c(=O)[nH]c(NC(=O)C(C)C)nc32)C[C@@H]1O)(c1ccccc1)c1ccccc1OC` [R1 = R2 = b; R3 = a, G] here?
Answer: The value was 45 s.

Question: And the “t1/2 in H+” value [2]?
Answer: Its value is 15 s.

Question: With `COc1ccccc1C(O)(c1ccccc1)c1ccccc1OC` [R1 = R2 = b; R3 = a] as the compound, how does the “λ Maximum(s)” value [5] read?
Answer: The value was 423 nanometers and 503 nanometers and 586 nanometers.

Question: With `COc1ccccc1C(OC[C@H]1O[C@@H](n2ccc(NC(=O)c3ccccc3)nc2=O)C[C@@H]1O)(c1ccccc1OC)c1cccc2ccccc12` [R1 = R2 = b; R3 = n, C] as the compound, how does the “Time to Complete Hydrolysis” value [2] read?
Answer: The value was 120 s.

Question: Which “Time to Complete Hydrolysis” value [2] does the source give for `COc1ccccc1C(OC[C@H]1O[C@@H](n2cc(C)c(=O)[nH]c2=O)C[C@@H]1O)(c1ccccc1OC)c1cccc2ccccc12` [R1 = R2 = b; R3 = n, T] here?
Answer: The value was 90 s.

Question: What about the “t1/2 in H+” value [2] of the same compound?
Answer: The value was 45 s.

Question: Which results are given for `COc1ccccc1C(O)(c1ccccc1OC)c1cccc2ccccc12` [R1 = R2 = b; R3 = n]?
Answer: λ Maximum(s) [5]: 586 nanometers; Extinction Coefficient [5]: 15500 Molar^-1 cm^-1

Question: With `COc1ccc(C(O)(c2ccccc2)c2cccc3ccccc23)cc1` (stereo not shown) [R1 = a; R2 = c; R3 = n] as the compound, how does the “λ Maximum(s)” value [5] read?
Answer: The value was 545 nanometers and 455 nanometers.

Question: What about the “Extinction Coefficient” value [5] of the same compound?
Answer: Its value is 25000 Molar^-1 cm^-1 and 28000 Molar^-1 cm^-1.

Question: For `OC(c1ccccc1)(c1ccc(F)cc1)c1cccc2ccccc12` (stereo not shown) [R1 = a; R2 = e; R3 = n], which “λ Maximum(s)” value ([5]; listed as R1 = a, R2 = n, R3 = e) is on record?
Answer: Its value is 577 nanometers and 421 nanometers.

Question: Which “Time to Complete Hydrolysis” value [2] does the source give for `Cc1ccc(C(OC[C@H]2O[C@@H](n3cnc4c(NC(=O)c5ccccc5)ncnc43)C[C@@H]2O)(c2ccccc2)c2ccccc2)cc1` [R1 = h; R2 = R3 = a, A] here?
Answer: The value was 240 s.

Question: And the “t1/2 in H+” value [2]?
Answer: Its value is 60 s.

Question: With `Cc1ccc(C(O)(c2ccccc2)c2ccccc2)cc1` [R1 = h; R2 = R3 = a] as the compound, how does the “λ Maximum(s)” value [5] read?
Answer: The value was 452 nanometers.

Question: What about the “Extinction Coefficient” value [5] of the same compound?
Answer: The value was 42000 Molar^-1 cm^-1.

Question: With `COc1ccc(C(OC[C@H]2O[C@@H](n3cc(C)c(=O)[nH]c3=O)C[C@@H]2O)(c2ccccc2)c2cccc3ccccc23)cc1` (stereo partly shown) [R1 = n; R2 = c; R3 = a, T] as the compound, how does the “Time to Complete Hydrolysis” value [2] read?
Answer: Its value is 45 s.

Question: What about the “t1/2 in H+” value [2] of the same compound?
Answer: The value was 30 s.

Question: Which “Time to Complete Hydrolysis” value [2] does the source give for `Cc1cn([C@H]2C[C@H](O)[C@@H](COC(c3ccccc3)(c3ccc(F)cc3)c3cccc4ccccc34)O2)c(=O)[nH]c1=O` (stereo partly shown) [R1 = n; R2 = e; R3 = a, T] here?
Answer: The value was over 600 s.

Question: And the “t1/2 in H+” value [2]?
Answer: Its value is 180 s.
